Data as given in PubChem BioAssay (NCI).
Where “and” joins values, the source holds several entries; their conditions need not be identical. Equal values may be shown once.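 Values below derive from 48-hour exposures of cells grown in 96-well plates, with endpoints linearly interpolated between the two concentrations bracketing the appropriate inhibition level. GI50 marks 50% less growth. TGI denotes the concentration required for complete inhibition of growth.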

How the values were obtained:
Experiment in all cases: growth of human tumour cells (NCI), 48 h
T-47D breast = system: T-47D breast
CAKI-1 renal = system: CAKI-1 renal
HS 578T breast = system: HS 578T breast
OVCAR-4 ovarian = system: OVCAR-4 ovarian
U251 CNS = system: U251 CNS
OVCAR-8 ovarian = system: OVCAR-8 ovarian
SK-MEL-5 melanoma = system: SK-MEL-5 melanoma
IGROV1 ovarian = system: IGROV1 ovarian
KM12 colon = system: KM12 colon
RPMI-8226 leukemia = system: RPMI-8226 leukemia

Row | Structure (SMILES) | GI50 (T-47D breast) [µM] | TGI (T-47D breast) [µM] | GI50 (CAKI-1 renal) [µM] | TGI (CAKI-1 renal) | GI50 (HS 578T breast) [µM] | TGI (HS 578T breast) [µM] | GI50 (OVCAR-4 ovarian) [µM] | TGI (OVCAR-4 ovarian) [µM] | GI50 (U251 CNS) [µM] | TGI (U251 CNS) [µM] | GI50 (OVCAR-8 ovarian) [µM] | TGI (OVCAR-8 ovarian) [µM] | GI50 (SK-MEL-5 melanoma) [µM] | TGI (SK-MEL-5 melanoma) [µM] | GI50 (IGROV1 ovarian) [µM] | TGI (IGROV1 ovarian) [µM] | GI50 (KM12 colon) [µM] | TGI (KM12 colon) [µM] | GI50 (RPMI-8226 leukemia) [µM] | TGI (RPMI-8226 leukemia) [µM]
1 | CCCc1cc(=O)n2c(C(=O)Nc3ccc(F)cc3)c(C(=O)Nc3ccc(F)cc3)sc2n1 | 87 | > 160 | 75.3 | > 160 µM | 2.58 | 11.1 | 26.4 | 54.9 | 16.3 | 47.9 | 4.57 | 28 | > 160 | > 160 | 30.3 | 148 | 111 | > 160 | 23.9 | 93.6
2 | COc1cc(C2C3=C(COC3=O)N(CCO)c3cc4c(cc32)OCCO4)cc(OC)c1OC (stereo not given) | 0.287 | > 50 | 2.11 | > 50 µM | 0.164 | 35.5 | 0.416 | > 50 | 0.226 | > 50 | 0.24 | > 50 | 0.179 | 0.916 | 0.165 | 0.898 | 0.187 | 0.838 | 0.149 | –
3 | Cc1ccc([N+](=O)[O-])c2c(NCCNC(=O)c3cc(C(=O)NCCNc4ccnc5c(C)ccc([N+](=O)[O-])c45)n(C)n3)ccnc12 | – | > 100 | – | > 100 µM | – | > 100 | – | > 73.3 | – | > 100 | – | > 100 | – | 58 | – | > 100 | – | > 100 | – | 78.3
4 | O=C(/C=C/C=C/c1ccccc1)c1ccco1 | 7.5 | 37.5 | 16 | 32.8 µM | 17.5 | 52.9 | 23.1 | > 100 | 12.4 | 24.9 | 27.1 | > 100 | 15.9 | 29.4 | 18.3 | 37.6 | 11 | 24.1 | 1.81 | 10.7
5 | COc1ccc(-c2nc(-c3nc4ccc(C)cc4[nH]3)cc3c2[nH]c2ccccc23)cc1 | 3.67 | 19.2 | 3.28 | > 100 µM | 4.94 | > 100 | 4.09 | > 100 | 3.42 | > 100 | 3.02 | > 100 | 3.12 | 12.6 | 3.58 | > 100 | 3.26 | 14 | 1.85 | 5.31
6 | c1ccc(OCCC[P+](c2ccccc2)(c2ccccc2)c2ccccc2)cc1 | 0.383 | 29.5 | 10.1 | 27.9 µM | 2.69 | 28.4 | 0.486 | 17.7 | 1.63 | 14 | 1.83 | 12.8 | 0.438 | 1.74 | 1.42 | 17.4 | 0.55 | 10.9 | 0.303 | 3.66
7 | CC/C(Cc1ccccc1)=C(\c1ccc(OCCN2CCCC2)cc1)c1ccc(OC(=O)NCc2ccccc2)cc1 | 1.41 | 4.23 | 1.63 | 3.02 µM | 1.97 | 4.32 | 1.86 | 3.85 | 1.77 | 3.17 | 1.87 | 3.67 | 1.71 | 3.11 | 1.93 | 3.87 | 1.92 | 3.81 | 2.25 | 4.95
8 | Cc1cc(-c2c(F)cc3c4nn([C@H]5CC[C@@H](N(C)C)CC5)c(=O)c-4cn(C4CC4)c3c2F)cc(C)n1 | – | 2.76 | 0.185 | 0.346 µM and 1.11 µM | – | 6.25 | 0.316 | – | – | 0.814 | – | 0.808 | – | 0.982 | 0.278 | – | – | 1.11 | 0.0294 | –
9 | O=C(O)/C(Cc1ccnc2ccccc12)=N\O | – | > 100 | – | > 100 µM | – | > 100 | – | > 100 | – | > 100 | – | > 100 | – | > 100 | – | > 100 | – | > 100 | – | > 100
10 | COc1ccc(/C=C/c2c(C(=O)/C=C/c3ccc(C(F)(F)F)cc3)c(C)nc3ccccc23)cc1 | 1.31 | 3.78 | 1.13 | 2.56 µM | 2.87 | 8.29 | 1.81 | 3.67 | 1.53 | 3.28 | 2.22 | > 100 | 1.68 | 3.09 | 0.466 | 2.39 | 2.12 | 5.09 | 0.807 | 7.65
11 | O=C(Nc1ccccc1I(=O)=O)C1CCCCC1 | 58.5 | > 100 | > 100 | > 100 µM | > 100 | > 100 | > 100 | > 100 | > 100 | > 100 | > 100 | > 100 | > 100 | > 100 | > 100 | > 100 | > 100 | > 100 | > 100 | > 100
